{
  "source": "patent US20260223897A1",
  "about": "“SIAMENOSIDE I SWEETENED BEVERAGES WITH MOGROSIDE BLENDS” (The Coca-Cola Company, priority 2023, published 2026)",
  "key": {"[1]": {"conditions": "cited from earlier work"}, "panelists [2]": {"system": "panelists", "test": "Example 1 paired taste test: panelists select the more bitter sample", "type": "in vivo", "method": "The sample was tested within 24 hours at room temperature.\nTaste tests were carried out with 7-9 panelists and run singlet to triplet."}, "panelists [3]": {"system": "panelists", "test": "Example 3 paired sensory test: more bitter sample", "type": "in vivo", "method": "Samples were tested within 7 days. […] Each pair of mogroside blends was evaluated by each panelist in triplet."}, "panelists [4]": {"system": "panelists", "test": "Example 2 paired sensory test: more bitter sample", "type": "in vivo", "conditions": "Table 6"}, "panelists [5]": {"system": "panelists", "test": "Example 3 paired sensory test: higher licorice flavor", "type": "in vivo", "conditions": "Table 14; Sample A = 500 ppm Siamenoside I alone vs Sample B (tri-blend of same row, 500 ppm total)", "method": "Samples were tested within 7 days.\nSensory tests were carried out with 8-12 panelists. Each pair of mogroside blends was evaluated by each panelist in triplet."}, "panelists [6]": {"system": "panelists", "test": "Example 2 paired sensory test: higher syrupy mouthfeel", "conditions": "Table 10; Sample A = 400 ppm Siamenoside I alone vs Sample B (blend, 400 ppm total)"}, "panelists [7]": {"system": "panelists", "test": "Example 2 paired sensory test: higher licorice flavor", "conditions": "Table 7; Sample A = 400 ppm Siamenoside I alone vs Sample B (blend, 400 ppm total)"}},
  "data": [
    {"smiles": "C[C@H](CC[C@@H](O[C@@H]1O[C@H](CO[C@@H]2O[C@H](CO)[C@@H](O)[C@H](O)[C@H]2O)[C@@H](O)[C@H](O)[C@H]1O[C@@H]1O[C@H](CO)[C@@H](O)[C@H](O)[C@H]1O)C(C)(C)O)[C@H]1CC[C@@]2(C)[C@@H]3CC=C4[C@@H](CC[C@H](O[C@@H]5O[C@H](CO)[C@@H](O)[C@H](O)[C@H]5O)C4(C)C)[C@]3(C)[C@H](O)C[C@]12C", "note": "[Siamenoside I]", "values": [
      {"measurement": "taste balance compared with mogroside V", "setting": "[1]; WO 2018213683 A1", "result": "better balance in sweetness, bitterness, sweet linger, astringency, and mouthfeel than mogroside V"},
      {"measurement": "sensory properties at high concentrations", "setting": "[1]; high purity, concentrations required to achieve a sucrose equivalence to 10° Brix", "result": "significant off-tastes such as licorice, metallic and bitter tastes, as well as sweetness lingering and bitter lingering"},
      {"measurement": "Number of Panelists that chose A as more bitter", "setting": "panelists [2]; Table 1, Sample A = 400 ppm siamenoside alone vs Sample B (blend of same row, 400 ppm total mogroside), filtered water", "result": 15},
      {"measurement": "Number of Panelists that chose A as more bitter", "setting": "panelists [2]; Table 2, Sample A = 400 ppm Siamenoside I alone vs Sample B (blend, 400 ppm total)", "result": 6},
      {"measurement": "Number of Panelists that chose A as more bitter", "setting": "panelists [2]; Table 3, Sample A = 400 ppm Siamenoside I alone vs Sample B (blend, 400 ppm total)", "result": 10},
      {"measurement": "Number of Panelists that chose A as more bitter", "setting": "panelists [2]; Table 3, Sample A = 500 ppm Siamenoside I alone vs Sample B (blend, 500 ppm total)", "result": 7},
      {"measurement": "Number of Panelist to choose A as more bitter", "setting": "panelists [3]; Table 11, Sample A = 500 ppm Siamenoside I alone vs Sample B (tri-blend, 500 ppm total)", "result": 19},
      {"measurement": "Number of Panelist to choose A as more bitter", "setting": "panelists [3]; Table 13, Sample A = 500 ppm Siamenoside I alone vs Sample B (blend, 500 ppm total)", "result": 16},
      {"measurement": "Number of Panelists that chose A as more bitter", "setting": "panelists [4]; Sample A = 400 ppm Siamenoside I alone vs Sample B (blend, 400 ppm total)", "result": 17},
      {"measurement": "Number of Panelists that chose A as more bitter", "setting": "panelists [4]; Sample A = 500 ppm Siamenoside I alone vs Sample B (blend, 500 ppm total), Sample B with 400 ppm of Siamenoside I", "result": 12},
      {"measurement": "Number of Panelists that chose A as more bitter", "setting": "panelists [4]; Sample A = 500 ppm Siamenoside I alone vs Sample B (blend, 500 ppm total), Sample B with 450 ppm of Siamenoside I", "result": 15},
      {"measurement": "Number of Panelists that chose A as more bitter", "setting": "panelists [4]; Sample A = 500 ppm Siamenoside I alone vs Sample B (blend, 500 ppm total), Sample B with 487.5 ppm of Siamenoside I", "result": 13},
      {"measurement": "Number of Panelist to choose A as higher licorice flavor", "setting": "panelists [5]", "result": 23},
      {"measurement": "Number of Panelist to choose A as higher syrupy mouthfeel", "setting": "panelists [6]", "result": 7},
      {"measurement": "Number of Panelist that chose A as higher licorice flavor", "setting": "panelists [7]", "result": 20}
    ]}
  ]
}
